Measurements reported in US20230089368A1, “POLYAROMATIC UREA DERIVATIVES AND THEIR USE IN THE TREATMENT OF MUSCLE DISEASES” (ANAGENESIS BIOTECHNOLOGIES S.A.S., priority 2019, published 2023).

Columns and labels:
[1] = system: muscle progenitors (hMP) from DMD hiPSC or WT hiPSC; assay: Myotube assay: myogenic activity (total myotube area per well); type: cell-based, human; conditions: Homo sapiens, 72 h, myotube assay, compounds incubated 3 days; for Emax: read-out: MA (normalized Myotube Area, efficacy)
Experimental: An in vitro assay for assessing the efficacy of compounds for use in treating, ameliorating, delaying, curing and/or preventing a disease or condition associated with muscle cells and/or satellite cells is described in example 78. Herein, the generation of myotubes and satellite cells after adding a compound to a myotube assay workflow is assessed. Said myotube assay workflow is derived from wild-type or DMD human induced pluripotent stem cells (WT hiPSC or DMD hiPSC). Before the addition of said compound, the assay comprises satellite-like cells, but no significant amount of myotubes.
(§1) The efficacy of said compound for use in treating, ameliorating, delaying, curing and/or preventing a disease or condition associated with muscle cells and/or satellite cells is positively correlated with the generation of myotubes (i.e. the increase of the area occupied by myotubes on the assay) and/or satellite cells (i.e. the increase of the number of satellite cells) in the assay after adding said compound. The generation of myotubes by the addition of said compound is expressed as the EC50 value, the concentration of said compound that corresponds with the half-maximal generation of myotubes, and the MA (normalized myotube area) value, the normalized area occupied by generated myotubes on the assay. […] Since muscle cells are formed from myotubes during myogenesis, the generation of myotubes in the assay is a good indicator of the ability of said compound to induce the formation of functional muscle cells in vivo. The number of satellite cells is measured as the percentage of Pax7 positive cells, relative to the total number of cells in the assay, as shown in FIG. 3. The percentage of Pax7 is a good indicator of the ability of said compound to induce the formation of satellite cells which are able to play a role in muscle repair and regeneration in vivo.
(§2) DMD human induced pluripotent stem cells (hereafter “DMD hiPSC”), generated from the NORM-1 hiPSC WT cell line by gene editing, or WT human induced pluripotent stem cells (hereafter “WT hiPSC”), being NORM-1 hiPSC wt cell line, have been differentiated according to Chal et al. 2015, 2016, to produce muscle progenitors (hereafter “hMP”). The hMP population contains satellite-like cells (i.e Pax7-positive cells) and satellite cells' progenies (i.e. Myogenin-positive cells).
(§3) FIG. 1 provides an example of a Myotube assay workflow. At day 0, hMP are thawed and 3.1 million cells are plated into a T75-flask coated with hESC-qualified Matrigel™ (Corning) in SkGM proliferating medium (PromoCells), supplemented with 5 μM Y-27632 (Tocris Bioscience). On day 2, SkGM proliferating medium is refreshed. On day 4, hMP are harvested and transferred into a 384-well plate coated with collagen type I at a density of 3500 cells/well in a DMEM-based medium, containing 5% of knockout serum replacement (Gibco), 1% PenStrep (Gibco), 1% MEM NEAA (Gibco) and 0.1 mM 2-mercaptoethanol (Gibco) (hereafter “K5 medium”) and 5 μM Y-27632. Compounds to be tested are then added in the medium and incubated for 3 days at 37° C. On day 7, cells are fixed and immunostained. For example, myotubes (alpha-actinin staining) and satellite-like (Pax7 staining) cells can be analyzed for total myotube area per well or Pax7-positive cell quantification.
(§4) DMD hMP were put in the Myotube assay according to the workflow described in Example 2.1. In particular, compound (i) was added at concentrations ranging from 1.5 nM to 30 μM, starting from day 4. hMP were cultivated for three more days in presence of compound (i), then fixed and analyzed for quantification of total myotube area per well. Duplicates of each condition were averaged.
Qualitative scale: ++++: EC50<500 nM; +++: 500 nM≤EC50<1000 nM; ++: 1000 nM≤EC50<5000 nM; +: EC50≥5000 nM; +++: MA≥75%; ++: 50%≤MA<75%; +: 25%≤MA<50%.

[2] = system: satellite-like cells (Pax7-positive cells) in hMP; assay: Myotube assay: Pax7-positive (satellite-like) cell quantification; type: cell-based, human; set-up: key to Pax7% (pool of Pax7-positive cells) / Pax7: −: Depletes the pool of cells, while positively affects the myotubes; +: Maintains or increases the pool of cells, with at least 1 of the highest concentration known to be cytotoxic; ++: Maintains or increases the pool of cells, without any toxicity; conditions: myotube assay, compounds incubated 3 days
Text: as §1, §2, §3
as §4, with “percentage” for “quantification”, “Pax7-positive cells and nuclei number.” for “total myotube area per well.”
(−): Depletes the pool of cells, while positively affects the myotubes; (+): Maintains or increases the pool of cells, with at least 1 of the highest concentration known to be cytotoxic; and (++) Maintains or increases the pool of cells, without any toxicity.

EC50 ([1]; 10 points dose-response 1.5 nM to 30 μM, read-out: EC50 (myogenic activity, half-maximal generation of myotubes)) | SMILES | Emax [1] | Pax7% (pool of Pax7-positive cells) [2]
– | CC(C)c1cc(Oc2ccnc3[nH]c(=O)cnc23)ccc1NC(=O)Nc1cc(C(C)(C)C)nn1-c1ccccc1 [(bk), 1-(3-(tert-butyl)-1-phenyl-1H-pyrazol-5-yl)-3-(2-isopropyl-4-((3-oxo-3,4-dihydropyrido[2,3-b]pyrazin-8-yl)oxy)phenyl)urea] | ≥ 75% | ++
– | CC(C)(C)c1cc(NC(=O)Nc2ccc(Oc3ccncc3)cc2)n(-c2ccccc2)n1 [(bl), 1-(3-(tert-butyl)-1-phenyl-1H-pyrazol-5-yl)-3-(4-(pyridin-4-yloxy)phenyl)urea] | 50 to 75% | +
– | CSc1cc(Oc2ccnc3[nH]c(=O)cnc23)ccc1NC(=O)Nc1cc(C(C)(C)C)nn1-c1ccc2ncccc2c1 [(bm), 1-(3-(tert-butyl)-1-(quinolin-6-yl)-1H-pyrazol-5-yl)-3-(2-(methylthio)-4-((3-oxo-3,4-dihydropyrido[2,3-b]pyrazin-8-yl)oxy)phenyl)urea] | ≥ 75% | +
– | CSc1cc(Oc2ccnc3[nH]c(=O)cnc23)ccc1NC(=O)Nc1cc(C(C)(C)C)nn1C1CCCCC1 [(bn), 1-(3-(tert-butyl)-1-cyclohexyl-1H-pyrazol-5-yl)-3-(2-(methylthio)-4-((3-oxo-3,4-dihydropyrido[2,3-b]pyrazin-8-yl)oxy)phenyl)urea] | 50 to 75% | ++
– | CC(C)(C)c1cc(NC(=O)Nc2ccc(Oc3ccnc4[nH]c(=O)cnc34)c(F)c2F)n(-c2ccccc2)n1 [(bo), 1-(3-(tert-butyl)-1-phenyl-1H-pyrazol-5-yl)-3-(2,3-difluoro-4-((3-oxo-3,4-dihydropyrido[2,3-b]pyrazin-8-yl)oxy)phenyl)urea] | ≥ 75% | +
– | CSc1cc(Oc2ccnc(NC(=O)CN(C)C(=O)OC(C)(C)C)c2)ccc1NC(=O)Nc1cc(C(C)(C)C)nn1-c1ccccc1 [(bp), tert-butyl (2-((4-(4-(3-(3-(tert-butyl)-1-phenyl-1H-pyrazol-5-yl)ureido)-3-(methylthio)phenoxy)pyridin-2-yl)amino)-2-oxoethyl)(methyl)carbamate] | ≥ 75% | +
< 0.5 µM | CNCC(=O)Nc1cc(Oc2ccc(NC(=O)Nc3cc(C(C)(C)C)nn3-c3ccccc3)c(SC)c2)ccn1 [(bq), N-(4-(4-(3-(3-(tert-butyl)-1-phenyl-1H-pyrazol-5-yl)ureido)-3-(methylthio)phenoxy)pyridin-2-yl)-2-(methylamino)acetamide] | ≥ 75% | +
– | CNC(=O)c1cc(Oc2ccc(NC(=O)Nc3cc(C(C)(C)C)nn3-c3ccccc3)c(SC)c2)ccn1 [(br), 4-(4-(3-(3-(tert-butyl)-1-phenyl-1H-pyrazol-5-yl)ureido)-3-(methylthio)phenoxy)-N-methylpicolinamide] | ≥ 75% | ++
– | CSc1cc(Oc2ccnc3nccnc23)ccc1NC(=O)Nc1cc(C(C)(C)C)nn1-c1ccccc1 [(bs), 1-(3-(tert-butyl)-1-phenyl-1H-pyrazol-5-yl)-3-(2-(methylthio)-4-(pyrido[2,3-b]pyrazin-8-yloxy)phenyl)urea] | ≥ 75% | ++
– | CC(C)(C)c1cc(NC(=O)Nc2cc(F)c(Oc3ccnc4[nH]c(=O)cnc34)cc2F)n(-c2ccccc2)n1 [(bt), 1-(3-(tert-butyl)-1-phenyl-1H-pyrazol-5-yl)-3-(2,5-difluoro-4-((3-oxo-3,4-dihydropyrido[2,3-b]pyrazin-8-yl)oxy)phenyl)urea] | ≥ 75% | ++
– | CSc1cc(Oc2cccc3[nH]c(=O)cnc23)ccc1NC(=O)Nc1cc(C(C)(C)C)nn1-c1ccccc1 [(bu), 1-(3-(tert-butyl)-1-phenyl-1H-pyrazol-5-yl)-3-(2-(methylthio)-4-((2-oxo-1,2-dihydroquinoxalin-5-yl)oxy)phenyl)urea] | 25 to 50% | ++
– | CSc1cc(Oc2ncnc3[nH]c(=O)cnc23)ccc1NC(=O)Nc1cc(C(C)(C)C)nn1-c1ccccc1 [(bv), 1-(3-(tert-butyl)-1-phenyl-1H-pyrazol-5-yl)-3-(2-(methylthio)-4-((7-oxo-7,8-dihydropteridin-4-yl)oxy)phenyl)urea] | ≥ 75% | ++
– | CSc1cc(Oc2ccnc3[nH]c(=O)cnc23)ccc1NC(=O)Nc1cc(C(C)(C)C)nn1-c1cccc(F)c1 [(bw), 1-(3-(tert-butyl)-1-(3-fluorophenyl)-1H-pyrazol-5-yl)-3-(2-(methylthio)-4-((3-oxo-3,4-dihydropyrido[2,3-b]pyrazin-8-yl)oxy)phenyl)urea] | ≥ 75% | ++
– | CSc1cc(Oc2ccnc3[nH]c(=O)cnc23)ccc1NC(=O)Nc1cc(C(C)(C)C)no1 [(bx), 1-(3-(tert-butyl)isoxazol-5-yl)-3-(2-(methylthio)-4-((3-oxo-3,4-dihydropyrido[2,3-b]pyrazin-8-yl)oxy)phenyl)urea] | ≥ 75% | ++
– | CSc1cc(Oc2ccnc3c2CCC(=O)N3)ccc1NC(=O)Nc1cc(C(C)(C)C)nn1-c1ccc(C)cc1 [(by), 1-(3-(tert-butyl)-1-(p-tolyl)-1H-pyrazol-5-yl)-3-(2-(methylthio)-4-((7-oxo-5,6,7,8-tetrahydro-1,8-naphthyridin-4-yl)oxy)phenyl)urea] | ≥ 75% | +
– | CSc1cc(Oc2ccnc3c2CCC(=O)N3)ccc1NC(=O)Nc1cc(C(C)(C)C)nn1-c1cccc(Cl)c1 [(bz), 1-(3-(tert-butyl)-1-(3-chlorophenyl)-1H-pyrazol-5-yl)-3-(2-(methylthio)-4-((7-oxo-5,6,7,8-tetrahydro-1,8-naphthyridin-4-yl)oxy)phenyl)urea] | ≥ 75% | +
– | CCC(C)c1cc(NC(=O)Nc2ccc(Oc3ccnc4[nH]c(=O)cnc34)cc2F)n(-c2ccccc2)n1 (stereo not drawn) [(c), 1-(3-(sec-butyl)-1-phenyl-1H-pyrazol-5-yl)-3-(2-fluoro-4-((3-oxo-3,4-dihydropyrido[2,3-b]pyrazin-8-yl)oxy)phenyl)urea] | 50 to 75% | +
– | CSc1cc(Oc2ccnc3[nH]c(=O)cnc23)ccc1NC(=O)Nc1nc(C(C)(C)C)cs1 [(ca), 1-(4-(tert-butyl)thiazol-2-yl)-3-(2-(methylthio)-4-((3-oxo-3,4-dihydropyrido[2,3-b]pyrazin-8-yl)oxy)phenyl)urea] | ≥ 75% | ++
– | CSc1cc(Oc2ccnc3c2CCC(=O)N3)ccc1NC(=O)Nc1ncc(C(C)(C)C)s1 [(cb), 1-(5-(tert-butyl)thiazol-2-yl)-3-(2-(methylthio)-4-((7-oxo-5,6,7,8-tetrahydro-1,8-naphthyridin-4-yl)oxy)phenyl)urea] | ≥ 75% | ++
